Reference: patent US7879835B2 (Korea Research Institute of Chemical Technology, priority 2004, dated 2011)

Tests used:
[1] = system: osteoclasts; assay: Inhibitory effect on resorption activity of osteoclast (resorption pit area on calcium phosphate-coated plate); format: cell-based, mice; conditions: compared to control
Method: After finishing culture, the plate was washed with distilled water, and 50 μl/well of 5% sodium hypochlorite was added to the plate. The plate was let alone for 5 min, washed again with distilled water to remove the adherent cells, and dried at room temperature. Then, the area of formed resorption pits was calculated by means of Image Pro Plus software (Media Cybernetics Ver. 3.0).

[2] = system: MG-63 cells; assay: Cytotoxicity test against osteoblast (MTT); format: cell-based, human
Method: (§1) In order examine the toxicities of the compounds of the Examples against osteoclast pregenitors, pregenitor cells were aliquotted onto a 96-well microplate at a density of 2×10^5 cells per well, treated with 2, 4 and 8 μM of the test compounds, respectively, and cultured for 48 hrs in α-MEM supplemented with 20 ng/ml of M-CSF (Peprotech, USA) using 37° C. incubator (5% CO2). At 3 hrs before the culture was finished, 50 μl of MTT (3-(4,5-dimethylthiazol-2-yl)-2,5-diphenyltetrazolium bromide) solution (50 μg/ml) was added to each well. Upon completion of the cell culture, the supernatant was removed, and the precipitated dye was reacted with 100 μl of isopropanol/0.04 N HCl at room temperature for 30 min to dissolve it. The absorbances of the wells were measured at 550 nm, and the relative absorbance of each well relative to that of the control (set as 100) is shown in Table 6.
In order to examine the toxicity of the compounds of the Examples against osteoblasts, human osteosarcoma-derived cell line, MG-63 (ATCC No. CRL-1427) cells were treated with 0.1, 0.3, 1.0 and 3.0 μM of the compounds of the Examples, and cultured in DMEM supplemented with 10% FBS (fetal bovine serum).

[3] = system: osteoclast (TRAP-positive multinuclear cell) formation; assay: Inhibitory effect on osteoclast formation (TRAP staining); format: cell-based, mice; conditions: 8 days culture with M-CSF and RANKL, compared to control
Method: The inhibitory activities of the alpha-arylmethoxyacrylate derivatives prepared in the above Examples on the proliferation of osteoclasts were examined as follows.
First, a bone marrow sample containing osteoclast pregenitor cells was isolated as follows. After sacrificing 7 to 9 week-old female mice by cervical dislocation, femur and tibia were excised aseptically while removing soft tissues attached thereto, After cutting both ends of the long bones, 1 ml of an enzyme solution containing 0.1% collagenase (Gibco), 0.05% trypsin and 0.5 mM EDTA (Gibco) was injected into the bone marrow cavity at one end using a syringe with a 26-gauge needle, and the bone marrow was then collected. After stirring the recovered bone marrow for 30 min, the precipitated bone marrow cells were collected, and cultured in α-minimum essential medium (α-MEM) supplemented with 10% FBS for 24 hrs. Then, non-adherent cells, which are osteoclast pregenitors, were aliquoted onto a culture plate at a density of 2×10^5 cells per well, and cultured for 8 days in α-MEM supplemented with 20 ng/ml of macrophage-colony stimulating factor (M-CSF, Peprotech, USA), 30 ng/ml RANKL (Peprotech, USA), and 0.3, 1.0 or 3 μM of the compounds of the Examples. Control cells were cultured at the same condition except not adding the compounds of the Examples.
After cell culture for 8 days, the adherent cells were washed with PBS and fixed with citrate-acetate-formaldehyde for 5 min. The fixed cells were incubated at 37° C. for 1 hr in acetate buffer (pH 5.0) containing naphthol AS-BI phosphate, fast Garnet GBC solution and 7 mM tartrate buffer (pH 5.0) to conduct TRAP (tartrate-resistant acid phosphatase) staining.

[4] = system: osteoclast pregenitor cells; assay: Cytotoxicity against osteoclast pregenitor (MTT); format: cell-based, mice; conditions: 48 hrs, absorbance at 550 nm
Method: as §1

C=CCCCCCCOc1cccc(OCc2ccccc2/C(=C\OC)C(=O)OC)c1 [compound 197]
Reduction (%) of the resorption pit area of osteoclasts ([1]; 0.3 uM): 100%
Reduction (%) of the resorption pit area of osteoclasts ([1]; 1 uM): 100%
Reduction (%) of the resorption pit area of osteoclasts ([1]; 3 uM): 100%
relative absorbance relative to that of the control (set as 100), MTT ([2]; 0.11 uM): 112
relative absorbance relative to that of the control (set as 100), MTT ([2]; 0.33 uM): 101
relative absorbance relative to that of the control (set as 100), MTT ([2]; 1 uM): 111
relative absorbance relative to that of the control (set as 100), MTT ([2]; 3 uM): 103
Osteoclast formation inhibitory effects (%) ([3]; 0.3 μM): 100%
Osteoclast formation inhibitory effects (%) ([3]; 1.0 μM): 100%
Osteoclast formation inhibitory effects (%) ([3]; 3.0 μM): 100%

CO/C=C(/C(=O)OC)c1ccc(Cl)cc1COc1ccc(OCC=C(C)C)cc1 [compound 269]
Reduction (%) of the resorption pit area of osteoclasts ([1]; 0.3 uM): 100%
Reduction (%) of the resorption pit area of osteoclasts ([1]; 1 uM): 100%
Reduction (%) of the resorption pit area of osteoclasts ([1]; 3 uM): 100%
relative absorbance relative to that of the control (set as 100), MTT ([2]; 0.33 uM): 81
relative absorbance relative to that of the control (set as 100), MTT ([2]; 1 uM): 94
relative absorbance relative to that of the control (set as 100), MTT ([2]; 3 uM): 88
Osteoclast formation inhibitory effects (%) ([3]; 0.3 μM): 97%
Osteoclast formation inhibitory effects (%) ([3]; 1.0 μM): 100%
Osteoclast formation inhibitory effects (%) ([3]; 3.0 μM): 100%

CO/C=C(/C(=O)OC)c1ccccc1COc1cccc(C(F)CC(C)(F)F)c1 (stereo not drawn) [compound 205]
relative absorbance relative to that of the control (set as 100), MTT ([4]; 2 uM): 101
relative absorbance relative to that of the control (set as 100), MTT ([4]; 4 uM): 109
relative absorbance relative to that of the control (set as 100), MTT ([4]; 8 uM): 104
Reduction (%) of the resorption pit area of osteoclasts ([1]; 1 uM): 100%
Reduction (%) of the resorption pit area of osteoclasts ([1]; 3 uM): 100%
Osteoclast formation inhibitory effects (%) ([3]; 0.3 μM): 90%
Osteoclast formation inhibitory effects (%) ([3]; 1.0 μM): 100%
Osteoclast formation inhibitory effects (%) ([3]; 3.0 μM): 100%

CO/C=C(/C(=O)OC)c1ccccc1COc1cccc(OCC=C(C)C)c1 [compound 217]
relative absorbance relative to that of the control (set as 100), MTT ([4]; 2 uM): 90
relative absorbance relative to that of the control (set as 100), MTT ([4]; 4 uM): 96
relative absorbance relative to that of the control (set as 100), MTT ([4]; 8 uM): 107
Reduction (%) of the resorption pit area of osteoclasts ([1]; 1 uM): 100%
Reduction (%) of the resorption pit area of osteoclasts ([1]; 3 uM): 100%
Osteoclast formation inhibitory effects (%) ([3]; 0.3 μM): 94%
Osteoclast formation inhibitory effects (%) ([3]; 1.0 μM): 100%
Osteoclast formation inhibitory effects (%) ([3]; 3.0 μM): 100%

CO/C=C(/C(=O)OC)c1ccccc1COc1cccc(OCC2CC2)c1 [compound 215]
relative absorbance relative to that of the control (set as 100), MTT ([4]; 2 uM): 96
relative absorbance relative to that of the control (set as 100), MTT ([4]; 4 uM): 102
relative absorbance relative to that of the control (set as 100), MTT ([4]; 8 uM): 107
Reduction (%) of the resorption pit area of osteoclasts ([1]; 0.3 uM): 97%
Reduction (%) of the resorption pit area of osteoclasts ([1]; 1 uM): 100%
Reduction (%) of the resorption pit area of osteoclasts ([1]; 3 uM): 100%
Osteoclast formation inhibitory effects (%) ([3]; 0.3 μM): 51%
Osteoclast formation inhibitory effects (%) ([3]; 1.0 μM): 100%
Osteoclast formation inhibitory effects (%) ([3]; 3.0 μM): 100%

CO/C=C(/C(=O)OC)c1ccccc1CON=C(C)c1cccc(OCCN2CCOCC2)c1 [compound 20]
Reduction (%) of the resorption pit area of osteoclasts ([1]; 1 uM): 26%
Reduction (%) of the resorption pit area of osteoclasts ([1]; 3 uM): 47%
relative absorbance relative to that of the control (set as 100), MTT ([2]; 0.33 uM): 106
relative absorbance relative to that of the control (set as 100), MTT ([2]; 1 uM): 106
relative absorbance relative to that of the control (set as 100), MTT ([2]; 3 uM): 105
Osteoclast formation inhibitory effects (%) ([3]; 0.3 μM): 12%
Osteoclast formation inhibitory effects (%) ([3]; 1.0 μM): 34%
Osteoclast formation inhibitory effects (%) ([3]; 3.0 μM): 100%

CO/C=C(/C(=O)OC)c1ccc(Cl)cc1COc1cccc(CO)c1 [compound 262]
Reduction (%) of the resorption pit area of osteoclasts ([1]; 0.3 uM): 93%
Reduction (%) of the resorption pit area of osteoclasts ([1]; 1 uM): 100%
Reduction (%) of the resorption pit area of osteoclasts ([1]; 3 uM): 100%
Osteoclast formation inhibitory effects (%) ([3]; 0.3 μM): 93%
Osteoclast formation inhibitory effects (%) ([3]; 1.0 μM): 100%
Osteoclast formation inhibitory effects (%) ([3]; 3.0 μM): 100%

CO/C=C(/C(=O)OC)c1ccccc1COc1cccc(OCC(C)C)c1 [compound 219]
relative absorbance relative to that of the control (set as 100), MTT ([4]; 2 uM): 90
relative absorbance relative to that of the control (set as 100), MTT ([4]; 4 uM): 100
relative absorbance relative to that of the control (set as 100), MTT ([4]; 8 uM): 99
Reduction (%) of the resorption pit area of osteoclasts ([1]; 1 uM): 88%
Reduction (%) of the resorption pit area of osteoclasts ([1]; 3 uM): 100%
Osteoclast formation inhibitory effects (%) ([3]; 0.3 μM): 99%
Osteoclast formation inhibitory effects (%) ([3]; 1.0 μM): 100%
Osteoclast formation inhibitory effects (%) ([3]; 3.0 μM): 100%

CO/C=C(/C(=O)OC)c1ccccc1COc1ccc(OCC(C)C)cc1 [compound 174]
Reduction (%) of the resorption pit area of osteoclasts ([1]; 0.3 uM): 100%
Reduction (%) of the resorption pit area of osteoclasts ([1]; 1 uM): 100%
Reduction (%) of the resorption pit area of osteoclasts ([1]; 3 uM): 100%
Osteoclast formation inhibitory effects (%) ([3]; 0.3 μM): 35%
Osteoclast formation inhibitory effects (%) ([3]; 1.0 μM): 100%
Osteoclast formation inhibitory effects (%) ([3]; 3.0 μM): 100%

CCCCCCOc1cccc(OCc2ccccc2/C(=C\OC)C(=O)OC)c1 [compound 220]
relative absorbance relative to that of the control (set as 100), MTT ([4]; 2 uM): 89
relative absorbance relative to that of the control (set as 100), MTT ([4]; 4 uM): 98
relative absorbance relative to that of the control (set as 100), MTT ([4]; 8 uM): 96
Reduction (%) of the resorption pit area of osteoclasts ([1]; 0.3 uM): 42%
Reduction (%) of the resorption pit area of osteoclasts ([1]; 1 uM): 70%
Reduction (%) of the resorption pit area of osteoclasts ([1]; 3 uM): 73%
Osteoclast formation inhibitory effects (%) ([3]; 0.3 μM): 100%
Osteoclast formation inhibitory effects (%) ([3]; 1.0 μM): 100%
Osteoclast formation inhibitory effects (%) ([3]; 3.0 μM): 100%

CO/C=C(/C(=O)OC)c1ccccc1COc1cccc(OC2CCCC2)c1 [compound 222]
relative absorbance relative to that of the control (set as 100), MTT ([4]; 2 uM): 97
relative absorbance relative to that of the control (set as 100), MTT ([4]; 4 uM): 108
relative absorbance relative to that of the control (set as 100), MTT ([4]; 8 uM): 101
Reduction (%) of the resorption pit area of osteoclasts ([1]; 0.3 uM): 100.0%
Reduction (%) of the resorption pit area of osteoclasts ([1]; 1 uM): 100%
Reduction (%) of the resorption pit area of osteoclasts ([1]; 3 uM): 100%
Osteoclast formation inhibitory effects (%) ([3]; 0.3 μM): 69%
Osteoclast formation inhibitory effects (%) ([3]; 1.0 μM): 100%
Osteoclast formation inhibitory effects (%) ([3]; 3.0 μM): 100%

C=CCCOc1ccc(OCc2ccccc2/C(=C\OC)C(=O)OC)cc1 [compound 178]
Reduction (%) of the resorption pit area of osteoclasts ([1]; 0.3 uM): 97%
Reduction (%) of the resorption pit area of osteoclasts ([1]; 1 uM): 100%
Reduction (%) of the resorption pit area of osteoclasts ([1]; 3 uM): 100%
Osteoclast formation inhibitory effects (%) ([3]; 0.3 μM): 89%
Osteoclast formation inhibitory effects (%) ([3]; 1.0 μM): 100%
Osteoclast formation inhibitory effects (%) ([3]; 3.0 μM): 100%

CO/C=C(/C(=O)OC)c1ccccc1COc1cccc(C(F)CC(C)=O)c1 (stereo not drawn) [compound 206]
relative absorbance relative to that of the control (set as 100), MTT ([4]; 2 uM): 102
relative absorbance relative to that of the control (set as 100), MTT ([4]; 4 uM): 102
relative absorbance relative to that of the control (set as 100), MTT ([4]; 8 uM): 108
Reduction (%) of the resorption pit area of osteoclasts ([1]; 0.3 uM): 97%
Reduction (%) of the resorption pit area of osteoclasts ([1]; 1 uM): 100%
Reduction (%) of the resorption pit area of osteoclasts ([1]; 3 uM): 100%
Osteoclast formation inhibitory effects (%) ([3]; 0.3 μM): 35%
Osteoclast formation inhibitory effects (%) ([3]; 1.0 μM): 100%
Osteoclast formation inhibitory effects (%) ([3]; 3.0 μM): 100%

CCCCCCOc1ccc(OCc2cc(Cl)ccc2/C(=C\OC)C(=O)OC)cc1 [compound 271]
Reduction (%) of the resorption pit area of osteoclasts ([1]; 0.3 uM): 30%
Reduction (%) of the resorption pit area of osteoclasts ([1]; 1 uM): 94%
Reduction (%) of the resorption pit area of osteoclasts ([1]; 3 uM): 42%
relative absorbance relative to that of the control (set as 100), MTT ([2]; 0.33 uM): 114
relative absorbance relative to that of the control (set as 100), MTT ([2]; 1 uM): 79
relative absorbance relative to that of the control (set as 100), MTT ([2]; 3 uM): 64
Osteoclast formation inhibitory effects (%) ([3]; 0.3 μM): 94%
Osteoclast formation inhibitory effects (%) ([3]; 1.0 μM): 100%
Osteoclast formation inhibitory effects (%) ([3]; 3.0 μM): 100%

CCC(C)Oc1ccc(OCc2ccccc2/C(=C\OC)C(=O)OC)cc1 (stereo not drawn) [compound 175]
Reduction (%) of the resorption pit area of osteoclasts ([1]; 0.3 uM): 99%
Reduction (%) of the resorption pit area of osteoclasts ([1]; 1 uM): 100%
Reduction (%) of the resorption pit area of osteoclasts ([1]; 3 uM): 100%
Osteoclast formation inhibitory effects (%) ([3]; 0.3 μM): 14%
Osteoclast formation inhibitory effects (%) ([3]; 1.0 μM): 100%
Osteoclast formation inhibitory effects (%) ([3]; 3.0 μM): 100%
